Assay results published in patent publication US20210100905A1, “APPLICATION OF COMPOUND OR TRADITIONAL CHINESE MEDICINE EXTRACT IN PREPARATION OF NUCLEIC ACID DELIVERY AGENT, AND RELATED PRODUCTS” (INSTITUTE OF BASIC MEDICAL SCIENCES CHINESE ACADEMY OF …, priority 2018, published 2021).
Entries after “also recorded” stand apart in the source; their conditions may differ.

Experiments:
[1] = Luciferase reporter with 3′UTR of target gene after lipid-mediated small RNA delivery; assay type: cell-based; conditions: FIG. 13; mutated 3′UTR
[2] = tested on: Luciferase with the wild-type 3′UTR in the target gene; assay: as above; assay type: cell-based; conditions: FIG. 13; wild-type 3′UTR
[3] = In vivo delivery of single-stranded sRNA by single lipid, gavage (Example 11); parameters: species or system C57 mice; conditions: 10 μL lipid, sRNA 1 nmol each, 12 hours; for delivery of sRNA single-stranded nucleic acid into mouse blood: FIGS. 108, 112-115, oral (gavage), heating method, vs POPC and Lipofectamine RNAiMAX
Description: 1. Experimental animals: C57 mice, male, approximately 6 weeks old.
2. Manufacture of lipid mixture: the prepration was conducted on the basis of a dose of 10 μ1 lipid-1 nmol sRNA per mouse as follows: dissolved 1 nmol of each sRNA in 500 μl DEPC water, added 10 μl of the corresponding lipid, pipette to mix thoroughly, and then naturally cooled down after water bath for 15 min at 90° C., and administered via gavage.
1) Tissue sampling and extraction of RNA: 6 hours after gavage in mice, took 500 μl of blood from the eyeball, added 1.5 ml Trizol Reagent LS to thoroughly mix and lyse, added 3 ml Trizol Reagent (purchased from Invitrogen) to the tissue samples and homogenized until complete lysis. Tissues sampled: live/stomach/small intestine.
2) Reverse transcription of sRNA to cDNA: Reverse Transcription Kit (High-Capacity cDNA Reverse Transcription Kits, Applied Biosystems, cat. no. 4368813), was used to reverse transcribe the total RNA to cDNA, and the reverse system was as follows: template RNA (150 ng/μL) 10 μL, 10× RT buffer, 2.0 μL, 25× dNTP Mix (100 mM) 0.8 μL, random primers 2.0 μL, the Multi Scribe™ reverse Transcriptase 1.0 μL, RNase inhibitor 1.0 μL, nuclease-free H2O 3.2 μL. After a brief centrifugation, the reaction was loaded in a PCR reactor. The reaction conditions were as follows: (1) 25° C., 10 min; (2) 37° C., 120 min; (3) 85° C., 5 min; (4) 4° C., termination of the reaction. After the reaction, 20 μL RNase-free ddH2O was added to make up the final volume to 40 μL.
LightCycler 480 fluorescence quantitative PCR instrumentwas used, and the PCR reaction conditions were: 95° C. , 5 min for pre-denaturation, followed by the PCR amplification cycle: (1) 95° C., 10 s; (2) 55° C., 10 s; (3) 72° C., 20 s; a total of 40 cycles; 40° C. for 10 s in the end to cool down. The forward primer and reverse primer of the amplification reaction were designed and synthesized by Beijing Qing Ke New Industrial Biotechnology Co., Ltd. (U6 F primer: GCGCGTCGTGAAGCGTTC (SEQ ID NO: 23), U6 R primer: GTGCAGGGTCCGAGGT (SEQ ID NO: 24)).
3) The relative expression amount was calculated by the 2-ΔCt method.
5) Treatment group of single lipid and nucleic acid mixture: a mixture of 10 μL of single lipid (No. 41) with single-stranded sRNA mixure solution (PGY-sRNA-23, PGY-sRNA-26 and PGY-sRNA-32, 1 nmol each) was treated by heating method and then given to mice via intragastric administration.
2. 12 hours after intragastric administration, the blood was taken from the eyeball, and various tissues (liver/stomach/small intestine) was sampled. TRIzol was used for full lysis and the RNA was extracted to detect the amount of entry.

A549 cells [4] = assay: Flow cytometry detection of the efficiency of nucleic acid delivery by lipid; assay type: cell-based, human; conditions: boiling method, 6 hours co-incubation
Description: Experimental materials: A549 cells (purchased from the Cell Center of the Chinese Academy of Medical Sciences), FAM-sRNA (purchased from Ribobio Biotechnology Co., Ltd.), lipid No. 41, Accuri® C6 instrument (purchased from BD, USA).
Experimental methods: PGY-sRNA-6-FAM was dissolved in 100 μl water, mixed with 4 μl lipid, and prepared by boiling method. Then the mixture was dropped into A549 cells, and after 6 hours of co-incubation, the samples were collected for detection as follows: firstly wash three times with PBS, then digest with trypsin for 3 minutes and remove trypsin, wash with PBS again and then blow down the cells. The detection was performed using Accuri® C6 instrument.
Experimental Method: PGY-sRNA-6-FAM was dissolved in 100 μl water, and mixed with 4 μl lipid, and prepared into lipid-sRNA mixture by boiling method. Then, the mixture was dropped into A549 cells, and after 6 hours of co-incubation, the samples were collected and washed three times with PBS, then digested with trypsin into single cells, washed with re-suspended with PBS and then blown down for Accuri® C6 instrument detection.
Experimental Method: FAM-sRNA was dissolved in 100 μl water, and mixed with 4 μl lipid, prepared by boiling method. Then, the lipid-sRNA mixture was dropped into A549 cells, and after 6 hours of co-incubation, the samples were collected and washed three times with PBS, then digested into single cells with trypsin, re-suspended with PBS and then blown down for Accuri® C6 instrument detection.

A549 cells [5] = assay: Confocal fluorescence microscopy of nucleic acid delivered by lipid; assay type: cell-based, human; conditions: boiling method, 4 μl lipid, 6 hours co-incubation
Description: Experimental materials: A549 cells (purchased from the Cell Center of the Chinese Academy of Medical Sciences), PGY-sRNA-6-Cy3 (purchased from Ribobio Biotechnology Co., Ltd.), lipid No. 41, Zeiss LSM780 (purchased from Zeiss, Germany), Alexa Fluor® 488 phalloidin (purchased from Invitrogen, USA), DAPI (purchased from Invitrogen, USA), paraformaldehyde (purchased from sigma, USA).
(§1) Experimental methods: PGY-sRNA-6-FAM was dissolved in 100 μl water, mixed with 4 μl lipid, and prepared by the boiling method. Then the mixture was dropped into A549 cells, and after 6 hours of co-incubation, the samples were washed three times with PBS, fixed with 4% paraformaldehyde, washed three times with PBS, stained with Alexa Fluor® 488 phalloidin for 30 min, washed 3 times with PBS, and stained with DAPI for 5 min, washed with PBS, and then sealed.
as §1, with “method:” for “methods:”, “water, and” for “water,”, “by” for “by the”, “Then,” for “Then”, “PBS washed,” for “washed with PBS,”

| Structure (SMILES) | action on Luciferase with mutated 3′UTR [1] | relative expression level of Luciferase with wild-type 3′UTR [2] | delivery of sRNA single-stranded nucleic acid into mouse blood [3] | efficiency in delivering PGY-sRNA-6 single-stranded RNA (flow cytometry) (A549 cells [4]; 4 μl lipid) | efficiency of PGY-sRNA-6 single-stranded RNA delivery relative to positive control RNAiMAX (flow cytometry) (A549 cells [4]) | entry of PGY-sRNA-6-Cy3 observed under confocal microscopy (A549 cells [5]) | further results |
| --- | --- | --- | --- | --- | --- | --- | --- |
| CCCCC/C=C\C/C=C\CCCCCCCC(=O)O[C@H](COC(=O)CCCCCCCCCCCCCCCCC)COP(=O)([O-])OCC[N+](C)(C)C [No. 11, trimethyl(2-{[(2R)-2-[(9Z, 12Z)-octadeca-9,12-dienoyloxy]-3-(octadecanoyloxy)propyl-phosphonato]oxy}ethyl) azanium] | did not act on the mutated 3′UTR of their target genes | reduced the relative expression level of the Luciferase with the wild-type 3′UTR in the target gene |  |  |  |  |  |
| CCCCC/C=C\C/C=C\CCCCCCCC(=O)O[C@H](COC(=O)CCCCCCCCCCCCCCC)COP(=O)([O-])OCC[N+](C)(C)C [No. 12, (2-{[(2R)-3-(hexadecanoyloxy)-2-[(9Z,12Z)-octadeca-9,12-dienoyloxy]propylphosphonato]oxy}ethyl) trimethylazanium] | did not act on the mutated 3′UTR of their target genes | reduced the relative expression level of the Luciferase with the wild-type 3′UTR in the target gene |  |  |  |  |  |
| CCCCCC/C=C\CCCCCCCC(=O)O[C@H](COC(=O)CCCCCCCCCCCCCCC)COP(=O)(O)OCCN [No. 38, (2-aminoethoxy) [(2R)-2-[(9Z)-hexadec-9-enoyloxy]-3-(hexadecanoyloxy)propoxy] phosphinic acid] |  |  | could effectively deliver sRNA single-stranded nucleic acid into mouse blood via oral administration; also recorded: the delivery effect was better than POPC and Lipofectamine RNAiMAX | 72.5% | close to that of the positive control RNAiMAX | could effectively deliver double-stranded nucleic acid into A549 cells |  |
| CCCCCCCC/C=C\CCCCCCCCCCCC(=O)O[C@H](COC(=O)CCCCCCCCCCCCCCC)COP(=O)(O)OCCN [No. 40, (2-aminoethoxy) [(2R)-2-[(13Z)-docos-13-enoyloxy]-3-(hexadecanoyloxy)propoxy] phosphinic acid] |  |  | could effectively deliver sRNA single-stranded nucleic acid into mouse blood via oral administration; also recorded: the delivery effect was better than POPC and Lipofectamine RNAiMAX |  |  | could effectively deliver single-stranded RNA into A549 cells |  |
| CCCCCCCCCCCCCCCCCCC[C@@H](O)[C@@H](N)CO [No. 41, Sphinganine (d22:0)] |  |  | could effectively deliver sRNA single-stranded nucleic acid into the mouse blood via oral administration; also recorded: the delivery effect was better than POPC and Lipofectamine RNAiMAX | 94.1% |  | could effectively deliver double-stranded nucleic acid into A549 cells | delivery of sRNA single-stranded nucleic acid into mouse stomach ([3]; FIG. 109, gavage): could effectively deliver sRNA single-stranded nucleic acid into the mouse stomach via oral administration to protect sRNA from degradation; delivery of sRNA single-stranded nucleic acid into mouse small intestine ([3]; FIG. 110, gavage): could effectively deliver sRNA single-stranded nucleic acid into the mouse small intestine via oral administration to protect sRNA from degradation; delivery of sRNA single-stranded nucleic acid into mouse liver ([3]; FIG. 111, gavage): could effectively deliver sRNA single-stranded nucleic acid into the mouse liver via oral administration to protect sRNA from degradation; efficiency in delivering PGY-sRNA-6 double-stranded RNA (flow cytometry) (A549 cells [4]; 4 μl lipid): 96.7% |
| CCCCCCCC/C=C\CCCCCCCCCCCCCC(=O)O[C@H](COC(=O)CCCCCCCCCCCCCC)COP(=O)(O)OCCN [No. 64, 1-pentadecanoyl-2-nervonoyl-sn-glycero-3-phospho-ethanolamine] |  |  | could effectively deliver sRNA single-stranded nucleic acid into mouse blood via oral administration; also recorded: the delivery effect was better than POPC and Lipofectamine RNAiMAX |  | ½ | could effectively deliver single-stranded RNA into A549 cells |  |
